In patent US20250092064A1, “BENZOTRIAZOLE COMPOUND” (DAIICHI SANKYO COMPANY, LIMITED, priority 2022, published 2025):

What was measured:
[1] = biological target: binding between Nrf2 and Keap1 (Homo sapiens (Human), UniProt Q14145); assay: FP assay (in vitro): inhibition of Nrf2-Keap1 binding by fluorescence polarization; conditions: GST-fused human Keap1 (325-642) 20 nM, FITC-labeled Nrf2 peptide 10 nM, 2 hr at room temperature
[2] = tested on: NQO1 activity in Hepa1c1c7 cells; assay: NAD(P)H: quinone oxidoreductase-1 (NQO1) enzyme induction assay (in vitro); assay type: cell-based, mouse; conditions: Mus musculus, Hepa-1c1c7, NQO1 activity with 400 nM test compound as a ratio from the base without compound, about 48 hr
Procedure, shortened: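 Mouse Hepa1c1c7 hepatoma cells treated 48 hr with 400 nM compound (final). NQO1 activity in lysates read by absorbance at 610 nm; value is background-subtracted activity ratio versus untreated cells.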

Chain of binding between Nrf2 and Keap1 (Q14145 325-624 limits assumed): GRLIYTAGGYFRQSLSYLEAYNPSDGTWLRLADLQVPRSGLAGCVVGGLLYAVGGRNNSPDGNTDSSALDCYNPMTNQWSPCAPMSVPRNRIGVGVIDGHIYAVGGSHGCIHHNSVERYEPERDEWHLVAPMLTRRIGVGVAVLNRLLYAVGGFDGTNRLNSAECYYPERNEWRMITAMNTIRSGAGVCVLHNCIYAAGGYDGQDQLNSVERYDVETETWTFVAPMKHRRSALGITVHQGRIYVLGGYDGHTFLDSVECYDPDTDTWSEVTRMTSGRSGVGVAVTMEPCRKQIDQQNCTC

Question: With `CC[C@@H]1CN(Cc2cc([C@H](CC(=O)O)c3cc(C)c4c(nnn4C)c3C)cc3c2CCC3)[C@@H](C)c2ncccc2O1` [Example 69, (3S)-3-(7-{[(2R,5S)-2-Ethyl-5-methyl-2,3-dihydropyrido[2,3-f][1,4]oxazepin-4(5H)-yl]methyl}-2,3-dihydro-1H-inden-5-yl)-3-(1,4,7-trimethyl-1H-benzotriazol-5-yl)propanoic acid] as the compound, how does the IC50 [1] read?
Answer: The IC50 was ≤ 10 nM.

Question: What about the fold induction at 0.4 µM [2] of the same compound?
Answer: Its fold induction at 0.4 µM is 3 to 5.

Question: Which results are given for `CC[C@@H]1CN(Cc2cc([C@@H](CC(=O)O)c3cc(Cl)c4c(nnn4C)c3C)cc3ccsc23)[C@@H](C)c2ncccc2O1` [Example 70, (3R)-3-(7-Chloro-1,4-dimethyl-1H-benzotriazol-5-yl)-3-(7-{[(2R,5S)-2-ethyl-5-methyl-2,3-dihydropyrido[2,3-f][1,4]oxazepin-4(5H)-yl]methyl}-1-benzothiophen-5-yl)propanoic acid]?
Answer: IC50 [1]: 30 to 100 nM; fold induction at 0.4 µM [2]: 3 to 5

Question: With `CC[C@@H]1CN(Cc2cc(C(CC(=O)O)c3ccc4c(nnn4C)c3C)cc3ccsc23)[C@H](C)c2ncccc2O1` (stereo partly drawn) [Example 73, 3-(1,4-Dimethyl-1H-benzotriazol-5-yl)-3-(7-{[(2R,5R)-2-ethyl-5-methyl-2,3-dihydropyrido[2,3-f][1,4]oxazepin-4(5H)-yl]methyl}-1-benzothiophen-5-yl)propanoic acid] as the compound, how does the IC50 [1] read?
Answer: Its IC50 is 30 to 100 nM.

Question: What about the fold induction at 0.4 µM [2] of the same compound?
Answer: Its fold induction at 0.4 µM is > 5.

Question: `CC[C@@H]1CN(Cc2cc([C@H](CC(=O)O)c3ccc4c(nnn4C)c3Cl)cc3ccsc23)[C@@H](C)c2ncccc2O1` [Example 74, (3S)-3-(4-Chloro-1-methyl-1H-benzotriazol-5-yl)-3-(7-{[(2R,5S)-2-ethyl-5-methyl-2,3-dihydropyrido[2,3-f][1,4]oxazepin-4(5H)-yl]methyl}-1-benzothiophen-5-yl)propanoic acid] was tested. Which IC50 [1] did it give?
Answer: The IC50 was ≤ 10 nM.

Question: And the fold induction at 0.4 µM [2]?
Answer: The fold induction at 0.4 µM was > 5.

Question: Which results are given for `CC[C@@H]1CN(Cc2cc([C@@H](CC(=O)O)c3ccc4c(nnn4C)c3Cl)cc3ccsc23)[C@@H](C)c2ncccc2O1` [Example 75, (3R)-3-(4-Chloro-1-methyl-1H-benzotriazol-5-yl)-3-(7-{[(2R,5S)-2-ethyl-5-methyl-2,3-dihydropyrido[2,3-f][1,4]oxazepin-4(5H)-yl]methyl}-1-benzothiophen-5-yl)propanoic acid]?
Answer: IC50 [1]: ≤ 10 nM; fold induction at 0.4 µM [2]: > 5

Question: How did the IC50 [1] turn out when `Cc1c([C@@H](CC(=O)O)c2cc(CN3C[C@@H](C)Oc4ccc(O)nc4[C@@H]3C)c3sccc3c2)ccc2c1nnn2C` [Example 80, (3S)-3-(1,4-Dimethyl-1H-benzotriazol-5-yl)-3-(7-{[(2R,5S)-7-hydroxy-2,5-dimethyl-2,3-dihydropyrido[2,3-f][1,4]oxazepin-4(5H)-yl]methyl}-1-benzothiophen-5-yl)propanoic acid] was run?
Answer: Its IC50 is 10 to 30 nM.

Question: And the fold induction at 0.4 µM [2]?
Answer: Its fold induction at 0.4 µM is > 5.

Question: How did the IC50 [1] turn out when `Cc1c([C@H](CC(=O)O)c2cc(CN3C[C@@H](C)Oc4ccc(O)nc4[C@@H]3C)c3sccc3c2)ccc2c1nnn2C` [Example 82, (3R)-3-(1,4-Dimethyl-1H-benzotriazol-5-yl)-3-(7-{[(2R,5S)-7-hydroxy-2,5-dimethyl-2,3-dihydropyrido[2,3-f][1,4]oxazepin-4(5H)-yl]methyl}-1-benzothiophen-5-yl)propanoic acid] was run?
Answer: The IC50 was 10 to 30 nM.

Question: What about the fold induction at 0.4 µM [2] of the same compound?
Answer: The fold induction at 0.4 µM was > 5.

Question: `CC[C@@H]1CN(Cc2cc([C@@H](c3ccc4c(nnn4C)c3C)C(C)(C)C(=O)O)cc3c2CCC3)[C@@H](C)c2ncccc2O1` [Example 89, (3S)-3-(1,4-Dimethyl-1H-benzotriazol-5-yl)-3-(7-{[(2R,5S)-2-ethyl-5-methyl-2,3-dihydropyrido[2,3-f][1,4]oxazepin-4(5H)-yl]methyl}-2,3-dihydro-1H-inden-5-yl)-2,2-dimethylpropanoic acid] was tested. Which IC50 [1] did it give?
Answer: The IC50 was ≤ 10 nM.

Question: And the fold induction at 0.4 µM [2]?
Answer: Its fold induction at 0.4 µM is > 5.

Question: With `Cc1c(C(CC(=O)O)c2cc(CN3C[C@@H](C)Oc4ccccc4S3(=O)=O)c3cc[nH]c3c2)ccc2c1nnn2C` (stereo partly drawn) [Example 90, 3-(1,4-Dimethyl-1H-benzotriazol-5-yl)-3-(4-{[(4R)-4-methyl-1,1-dioxido-3,4-dihydro-2H-5,1,2-benzoxathiazepin-2-yl]methyl}-1H-indol-6-yl)propanoic acid] as the compound, how does the IC50 [1] read?
Answer: The IC50 was 10 to 30 nM.

Question: And the fold induction at 0.4 µM [2]?
Answer: The fold induction at 0.4 µM was > 5.

Question: Which IC50 [1] does the source give for `CC[C@@H]1CN(Cc2cc(C(CC(=O)O)c3ccc4c(nnn4C)c3C)cc3c2OCC3)S(=O)(=O)c2cc(Cl)cnc2O1` (stereo partly drawn) [Example 91, 3-(7-{[(4R)-8-Chloro-4-ethyl-1,1-dioxido-3,4-dihydro-2H-pyrido[2,3-b][1,4,5]oxathiazepin-2-yl]methyl}-2,3-dihydro-1-benzofuran-5-yl)-3-(1,4-dimethyl-1H-benzotriazol-5-yl)propanoic acid] here?
Answer: Its IC50 is 10 to 30 nM.

Question: What about the fold induction at 0.4 µM [2] of the same compound?
Answer: Its fold induction at 0.4 µM is > 5.

Question: `CC[C@@H]1CN(Cc2cc(C(CC(=O)O)c3ccc4c(nnn4C)c3Cl)cc3ccoc23)S(=O)(=O)c2cc(Cl)cnc2O1` (stereo partly drawn) [Example 92, 3-(7-{[(4R)-8-Chloro-4-ethyl-1,1-dioxido-3,4-dihydro-2H-pyrido[2,3-b][1,4,5]oxathiazepin-2-yl]methyl}-1-benzofuran-5-yl)-3-(4-chloro-1-methyl-1H-benzotriazol-5-yl)propanoic acid] was tested. Which IC50 [1] did it give?
Answer: The IC50 was 10 to 30 nM.

Question: And the fold induction at 0.4 µM [2]?
Answer: The fold induction at 0.4 µM was > 5.

Question: `C[C@@H]1CN(Cc2cc(C(CC(=O)O)c3ccc4c(nnn4C)c3Cl)cc3c2CCC3)S(=O)(=O)c2ccccc2O1` (stereo partly drawn) [Example 95, 3-(4-Chloro-1-methyl-1H-benzotriazol-5-yl)-3-(7-{[(4R)-4-methyl-1,1-dioxido-3,4-dihydro-2H-5,1,2-benzoxathiazepin-2-yl]methyl}-2,3-dihydro-1H-inden-5-yl)propanoic acid] was tested. Which IC50 [1] did it give?
Answer: Its IC50 is ≤ 10 nM.

Question: What about the fold induction at 0.4 µM [2] of the same compound?
Answer: The fold induction at 0.4 µM was > 5.

Question: With `CC[C@@H]1CN(Cc2cc([C@H](CC(=O)O)c3cc(Cl)c4c(nnn4C)c3C)cc3c2CCC3)S(=O)(=O)c2cc(Cl)cnc2O1` [Example 96, (3S)-3-(7-Chloro-1,4-dimethyl-1H-benzotriazol-5-yl)-3-(7-{[(4R)-8-chloro-4-ethyl-1,1-dioxido-3,4-dihydro-2H-pyrido[2,3-b][1,4,5]oxathiazepin-2-yl]methyl}-2,3-dihydro-1H-inden-5-yl)propanoic acid] as the compound, how does the IC50 [1] read?
Answer: The IC50 was ≤ 10 nM.

Question: And the fold induction at 0.4 µM [2]?
Answer: Its fold induction at 0.4 µM is > 5.

Question: What does the source list for `CC[C@@H]1CN(Cc2cc([C@@H](CC(=O)O)c3cc(Cl)c4c(nnn4C)c3C)cc3c2CCC3)S(=O)(=O)c2cc(Cl)cnc2O1` [Example 97, (3R)-3-(7-Chloro-1,4-dimethyl-1H-benzotriazol-5-yl)-3-(7-{[(4R)-8-chloro-4-ethyl-1,1-dioxido-3,4-dihydro-2H-pyrido[2,3-b][1,4,5]oxathiazepin-2-yl]methyl}-2,3-dihydro-1H-inden-5-yl)propanoic acid]?
Answer: IC50 [1]: ≤ 10 nM; fold induction at 0.4 µM [2]: > 5

Question: Which IC50 [1] does the source give for `CC[C@@H]1CN(Cc2cc([C@@H](CC(=O)O)c3cc(OC(F)F)c4c(nnn4C)c3C)cc3c2CCC3)S(=O)(=O)c2cc(Cl)cnc2O1` [Example 98, (3R)-3-(7-{[(4R)-8-Chloro-4-ethyl-1,1-dioxido-3,4-dihydro-2H-pyrido[2,3-b][1,4,5]oxathiazepin-2-yl]methyl}-2,3-dihydro-1H-inden-5-yl)-3-[7-(difluoromethoxy)-1,4-dimethyl-1H-benzotriazol-5-yl]propanoic acid] here?
Answer: Its IC50 is ≤ 10 nM.

Question: What about the fold induction at 0.4 µM [2] of the same compound?
Answer: Its fold induction at 0.4 µM is > 5.

Question: `CC[C@@H]1CN(Cc2cc([C@H](CC(=O)O)c3cc(OC(F)F)c4c(nnn4C)c3C)cc3c2CCC3)S(=O)(=O)c2cc(Cl)cnc2O1` [Example 99, (3S)-3-(7-{[(4R)-8-Chloro-4-ethyl-1,1-dioxido-3,4-dihydro-2H-pyrido[2,3-b][1,4,5]oxathiazepin-2-yl]methyl}-2,3-dihydro-1H-inden-5-yl)-3-[7-(difluoromethoxy)-1,4-dimethyl-1H-benzotriazol-5-yl]propanoic acid] was tested. Which IC50 [1] did it give?
Answer: Its IC50 is ≤ 10 nM.

Question: What about the fold induction at 0.4 µM [2] of the same compound?
Answer: The fold induction at 0.4 µM was > 5.

Question: What does the source list for `CC[C@@H]1CN(Cc2cc([C@H](CC(=O)O)c3cc(OC(F)(F)F)c4c(nnn4C)c3C)cc3c2CCC3)S(=O)(=O)c2cc(Cl)cnc2O1` [Example 100, (3S)-3-(7-{[(4R)-8-Chloro-4-ethyl-1,1-dioxido-3,4-dihydro-2H-pyrido[2,3-b][1,4,5]oxathiazepin-2-yl]methyl}-2,3-dihydro-1H-inden-5-yl)-3-[1,4-dimethyl-7-(trifluoromethoxy)-1H-benzotriazol-5-yl]propanoic acid]?
Answer: IC50 [1]: ≤ 10 nM; fold induction at 0.4 µM [2]: > 5

Question: Which IC50 [1] does the source give for `CC[C@@H]1CN(Cc2cc([C@@H](CC(=O)O)c3cc(OC(F)(F)F)c4c(nnn4C)c3C)cc3c2CCC3)S(=O)(=O)c2cc(Cl)cnc2O1` [Example 101, (3R)-3-(7-{[(4R)-8-Chloro-4-ethyl-1,1-dioxido-3,4-dihydro-2H-pyrido[2,3-b][1,4,5]oxathiazepin-2-yl]methyl}-2,3-dihydro-1H-inden-5-yl)-3-[1,4-dimethyl-7-(trifluoromethoxy)-1H-benzotriazol-5-yl]propanoic acid] here?
Answer: Its IC50 is ≤ 10 nM.

Question: What about the fold induction at 0.4 µM [2] of the same compound?
Answer: The fold induction at 0.4 µM was > 5.

Question: What does the source list for `CC[C@@H]1CN(Cc2cc(C(CC(=O)O)c3cc(C4CC4)c4c(nnn4C)c3C)cc3c2OCC3)S(=O)(=O)c2cc(Cl)cnc2O1` (stereo partly drawn) [Example 102, 3-(7-{[(4R)-8-Chloro-4-ethyl-1,1-dioxido-3,4-dihydro-2H-pyrido[2,3-b][1,4,5]oxathiazepin-2-yl]methyl}-2,3-dihydro-1-benzofuran-5-yl)-3-(7-cyclopropyl-1,4-dimethyl-1H-benzotriazol-5-yl)propanoic acid]?
Answer: IC50 [1]: ≤ 10 nM; fold induction at 0.4 µM [2]: > 5

Question: With `CC[C@@H]1CN(Cc2cc(C(CC(=O)O)c3cc(C4CC4)c4c(nnn4C)c3C)cc3[nH]ccc23)S(=O)(=O)c2cc(Cl)cnc2O1` (stereo partly drawn) [Example 103, 3-(4-{[(4R)-8-Chloro-4-ethyl-1,1-dioxido-3,4-dihydro-2H-pyrido[2,3-b][1,4,5]oxathiazepin-2-yl]methyl}-1H-indol-6-yl)-3-(7-cyclopropyl-1,4-dimethyl-1H-benzotriazol-5-yl)propanoic acid] as the compound, how does the IC50 [1] read?
Answer: The IC50 was ≤ 10 nM.

Question: What about the fold induction at 0.4 µM [2] of the same compound?
Answer: The fold induction at 0.4 µM was > 5.
